Source: ChEMBL document CHEMBL5252673, “Development of thiazole-appended novel hydrazones as a new class of α-amylase inhibitors with anticancer assets: an in silico and in vitro approach” (RSC Med Chem, 2023)
Active and inactive are the calls of the source. The rule behind the calls is not given here.

What was measured:
[1] = biological target: T1, Pancreatic alpha-amylase (Sus scrofa, UniProt P00690); assay: Inhibition of porcine pancreatic alpha-amylase using starch as substrate incubated for 10 mins by absorbance based assay
T1 sequence (P00690 whole entry): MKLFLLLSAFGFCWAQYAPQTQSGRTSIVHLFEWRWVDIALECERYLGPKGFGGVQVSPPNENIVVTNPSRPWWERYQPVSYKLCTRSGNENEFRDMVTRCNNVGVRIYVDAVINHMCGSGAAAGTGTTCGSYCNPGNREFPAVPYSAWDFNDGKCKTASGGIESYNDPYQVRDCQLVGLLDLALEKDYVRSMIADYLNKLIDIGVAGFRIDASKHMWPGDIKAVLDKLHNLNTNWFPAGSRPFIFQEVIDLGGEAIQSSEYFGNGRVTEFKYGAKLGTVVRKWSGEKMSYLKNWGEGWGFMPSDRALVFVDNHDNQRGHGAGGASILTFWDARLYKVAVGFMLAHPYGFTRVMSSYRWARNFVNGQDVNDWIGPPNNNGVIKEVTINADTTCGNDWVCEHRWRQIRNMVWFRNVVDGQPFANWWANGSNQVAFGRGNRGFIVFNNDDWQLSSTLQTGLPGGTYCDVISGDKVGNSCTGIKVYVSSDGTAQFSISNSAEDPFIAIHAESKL

[2] = biological target: Alpha amylase (Homo sapiens) (UniProt P0DUB6); assay: Binding affinity to alpha-amylase (unknown origin) assessed as decrease in fluorescence intensity of tyrosine residue by Synchronous fluorescence analysis
[3] = biological target: Alpha amylase (Homo sapiens) (UniProt P0DUB6); assay: Binding affinity to alpha-amylase (unknown origin) assessed as increase in absorption intensity by measuring appearance of new peak at 380 nm at 0.001 M by […]
[4] = biological target: Alpha amylase (Homo sapiens) (UniProt P0DUB6); assay: Binding affinity to alpha-amylase (unknown origin) assessed as Stem-Volmer quenching constant at a temperature of 310.15 K by fluorescence quenching analysis
[5] = test system: A549; assay: Antiproliferative activity against human A549 cells assessed as inhibition of cell growth incubated for 48 hrs by MTT assay; format: functional, cell-based; details: A549, 48 h
[6] = biological target: Alpha amylase (Homo sapiens) (UniProt P0DUB6); assay: Binding affinity to alpha-amylase (unknown origin) assessed as equilibrium binding constant at a temperature of 310.15 K by fluorescence quenching analysis
[7] = test system: A549; assay: Induction of ROS in human A549 cells at sub IC50 concentration incubated for 24 hrs by H2DCFDA dye based fluorescence assay (reference value: 33.28%); format: functional
[8] = biological target: Alpha amylase (Homo sapiens) (UniProt P0DUB6); assay: Binding affinity to alpha-amylase (unknown origin) assessed as assessed as non-uniform change in fluorescence intensity of tryptophan residue by Synchronous fluorescence analysis
[9] = biological target: Alpha amylase (Homo sapiens) (UniProt P0DUB6); assay: Binding affinity to alpha-amylase (unknown origin) assessed as quenching constant at a temperature of 283.15 K by fluorescence quenching analysis
[10] = biological target: Alpha amylase (Homo sapiens) (UniProt P0DUB6); assay: Binding affinity to alpha-amylase (unknown origin) assessed as Stem-Volmer quenching constant at a temperature of 288.15 K by fluorescence quenching analysis
[11] = biological target: Alpha amylase (Homo sapiens) (UniProt P0DUB6); assay: Binding affinity to alpha-amylase (unknown origin) assessed as Stem-Volmer quenching constant at a temperature of 278.15 K by fluorescence quenching analysis
[12] = biological target: Alpha amylase (Homo sapiens) (UniProt P0DUB6); assay: Binding affinity to alpha-amylase (unknown origin) assessed as gibb's free energy change ar a temperature of 310.15 K by fluorescence quenching analysis
[13] = biological target: Alpha amylase (Homo sapiens) (UniProt P0DUB6); assay: Binding affinity to alpha-amylase (unknown origin) assessed as Stem-Volmer quenching constant at a temperature of 283.15 K by fluorescence quenching analysis
[14] = biological target: T2, Alpha amylase (Homo sapiens, UniProt P0DUB6); assay: Inhibition of alpha-amylase (unknown origin) using starch as substrate preincubated with substrate for 15 mins followed by compound addition and measured after 15 mins by UV-VIS spectrophotometric analysis
T2 sequence (P0DUB6 whole entry): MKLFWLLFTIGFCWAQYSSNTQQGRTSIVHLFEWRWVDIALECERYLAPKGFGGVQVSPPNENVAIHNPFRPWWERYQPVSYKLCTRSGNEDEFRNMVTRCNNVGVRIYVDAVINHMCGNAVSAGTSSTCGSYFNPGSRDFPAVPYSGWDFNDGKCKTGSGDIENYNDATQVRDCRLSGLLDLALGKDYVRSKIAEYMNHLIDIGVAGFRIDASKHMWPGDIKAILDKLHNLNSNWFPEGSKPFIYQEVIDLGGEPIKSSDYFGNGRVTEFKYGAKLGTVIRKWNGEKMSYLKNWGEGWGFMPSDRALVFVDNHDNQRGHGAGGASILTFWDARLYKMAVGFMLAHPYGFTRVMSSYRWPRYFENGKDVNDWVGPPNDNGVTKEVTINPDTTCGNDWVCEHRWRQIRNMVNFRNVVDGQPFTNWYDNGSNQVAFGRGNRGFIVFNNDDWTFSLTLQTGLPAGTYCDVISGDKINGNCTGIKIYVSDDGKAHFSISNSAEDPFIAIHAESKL

[15] = biological target: Alpha amylase (Homo sapiens) (UniProt P0DUB6); assay: Binding affinity to alpha-amylase (unknown origin) assessed as quenching constant at a temperature of 278.15 K by fluorescence quenching analysis
[16] = biological target: Alpha amylase (Homo sapiens) (UniProt P0DUB6); assay: Binding affinity to alpha-amylase (unknown origin) assessed as quenching constant at a temperature of 310.15 K by fluorescence quenching analysis
[17] = biological target: Alpha amylase (Homo sapiens) (UniProt P0DUB6); assay: Binding affinity to alpha-amylase (unknown origin) assessed as equilibrium binding constant at a temperature of 278.15 K by fluorescence quenching analysis
[18] = biological target: Alpha amylase (Homo sapiens) (UniProt P0DUB6); assay: Binding affinity to alpha-amylase (unknown origin) assessed as increase in intensity of absorption peak at 280 nm by […]
[19] = biological target: Alpha amylase (Homo sapiens) (UniProt P0DUB6); assay: Binding affinity to alpha-amylase (unknown origin) assessed as gibb's free energy change ar a temperature of 283.15 K by fluorescence quenching analysis
[20] = biological target: Alpha amylase (Homo sapiens) (UniProt P0DUB6); assay: Binding affinity to alpha-amylase (unknown origin) assessed as change in enthalpy by fluorescence quenching analysis
[21] = biological target: Alpha amylase (Homo sapiens) (UniProt P0DUB6); assay: Binding affinity to alpha-amylase (unknown origin) assessed as increase in intensity of absorption peak at 285 nm by […]
[22] = test system: MDA-MB-231; assay: Antiproliferative activity against human MDA-MB-231 cells assessed as inhibition of cell growth incubated for 48 hrs by MTT assay; format: functional, cell-based; details: MDA-MB-231, 48 h
[23] = biological target: Alpha amylase (Homo sapiens) (UniProt P0DUB6); assay: Binding affinity to alpha-amylase (unknown origin) assessed as quenching constant at a temperature of 288.15 K by fluorescence quenching analysis
[24] = biological target: Alpha amylase (Homo sapiens) (UniProt P0DUB6); assay: Binding affinity to alpha-amylase (unknown origin) assessed as gibb's free energy change ar a temperature of 288.15 K by fluorescence quenching analysis
[25] = biological target: Alpha amylase (Homo sapiens) (UniProt P0DUB6); assay: Binding affinity to alpha-amylase (unknown origin) assessed as gibb's free energy change ar a temperature of 278.15 K by fluorescence quenching analysis
[26] = biological target: Alpha amylase (Homo sapiens) (UniProt P0DUB6); assay: Binding affinity to alpha-amylase (unknown origin) assessed as change in entropy by fluorescence quenching analysis
[27] = test system: MCF-10A; assay: Cytotoxicity against human MCF-10A assessed as reduction in cell viability upto 10 uM incubated for 48 hrs by MTT assay; format: toxicity, cell-based
[28] = test system: HCT-116; assay: Antiproliferative activity against human HCT-116 cells assessed as inhibition of cell growth incubated for 48 hrs by MTT assay; format: functional, cell-based; details: HCT-116, 48 h
[29] = biological target: Alpha amylase (Homo sapiens) (UniProt P0DUB6); assay: Binding affinity to alpha-amylase (unknown origin) assessed as equilibrium binding constant at a temperature of 283.15 K by fluorescence quenching analysis
[30] = biological target: Alpha amylase (Homo sapiens) (UniProt P0DUB6); assay: Binding affinity to alpha-amylase (unknown origin) assessed as equilibrium binding constant at a temperature of 288.15 K by fluorescence quenching analysis

With `COc1ccc(CNC(=O)Nc2sc3c(c2C#N)CCCC3)c(OC)c1` the IC50 [1] was 0.59 µM.

With `O=C(N/N=C/c1ccc(O)cc1)c1csc(Nc2ccc([N+](=O)[O-])cc2)n1` the Activity [2] was “Active”, the Activity [3] was “Active” and the KSV [4] was 0.188 10^5L/mol/s. It also gave an IC50 [5] of 7.44 µM, a Kb [6] of 442000 L/mol and an Activity [7] of 64.21%. For the same molecule, the Activity [8] was “Active”, the Kq [9] was 9.36 10^13L/mol/s and the KSV [10] was 0.24 10^5L/mol/s. The KSV [11] was 1.6 10^5L/mol/s, the deltaG [12] was -0.507 kcal/mol and the KSV [13] was 0.93 10^5L/mol/s. The IC50 [14] was 0.23 µM, the Kq [15] was 16.8 10^13L/mol/s and the Kq [16] was 1.88 10^13L/mol/s. For the same molecule, the Kb [17] was 6.32 10^6L/mol, the Activity [18] was “Dose-Dependent Effect” and the deltaG [19] was -6.7 kcal/mol. For the same molecule, the deltaH [20] was -6.4 kcal/mol, the Activity [21] was “Dose-Dependent Effect” and the IC50 [22] was 11.4 µM. For the same molecule, the Kq [23] was 2.46 10^13L/mol/s, the deltaG [24] was -5.69 kcal/mol and the deltaG [25] was -7.71 kcal/mol. For the same molecule, the deltaS [26] was -847 J/mol/K, the Activity [27] was “Non-Toxic” and the IC50 [28] was 8.33 µM. The Kb [29] was 0.102 10^6L/mol and the Kb [30] was 0.00254 10^6L/mol.
